Patent publication EP0069659A1, “Medicine containing the reaction product of a carboxylic acid and a basic amino acid” (CHANY, Charles, priority 1981, dated 1983)

Experiments:
[1] = test system: virus de l'encéphalomyocardite de la souris (EMC) de la souche Mengo; assay: Antiviral protection of mice against the lethal effect of 100 DL50 of EMC virus; conditions: for survie lorsqu'on administre aussi de l'interféron: given together with interféron; for survie relevée au moment où la mortalité cesse dans la série d'animaux témoins: propionate d'arginine 0,252 mg/g, hexanoate d'arginine 0,29 mg/g, virus-only controls 5 sur 30
Source text: Dans ces expériences, on met en évidence l'activité antivirale contre l'effet léthal de 100 DL50 du virus de l'encéphalomyocardite.
Les animaux de laboratoire utilisés sont des souris du type "Swiss" provenant d'un élevage propre aux Inventeurs.
Le virus employé est celui de l'encéphalomyocar- dite de la souris (EMC) de la souche Mengo cultivée sur des cellules murines L 929.
Le titre des suspensions de virus est estimé par la "méthode des plages" en utilisant toujours des cellules murines L 929. On admet que 5 unités (UFP) formant des plages, correspondent à une dose léthale DL50.
Le virus est inoculé par voie intrapéritonéale.
On réalise également, à titre de comparaison, les expériences suivantes : • - prétraitement des animaux par le butyrate de sodium avant inoculation du virus EMC, • - traitement par le butyrate d'arginine ou de lysine simultanément à l'injection du virus.
Des groupes de souris témoin sont traités par le virus seul et le solvant (milieu isotonique) seul.
et on a administré pour chaque expérience 0,5 ml de ces solutions par souris de 25 g.
L'interféron a été administré à raison de 20.000 à 25.000 unités internationales par souris par voie intrapéritonéale sous un volume de 0,5 ml et l'immunostimulant, à savoir le corynébacterium parvum, souche Mérieux, a été injecté à l'animal par voie intrapéritonéale à raison de 200 µg/0,1 ml/souris.
L'action antivirale a été étudiée dans les mêmes conditions que plus haut.

[2] = test system: mutant du sarcome de Crocker 180 TG; assay: Antitumour activity in mice grafted intraperitoneally with ascitic sarcoma (nine experiments, figures 1 to 9); assay type: in vivo, souris Swiss
Protocol: La tumeur utilisée dans les expériences qui suivent est un mutant du sarcome de Crocker 180 TG qui résiste au traitement par les dérivés puriques.
Les animaux d'expériences sont toujours des souris Swiss de l'élevage susmentionné.
On leur inocule le sarcome par voie intrapéritonéale en utilisant une suspension de 10^6 cellules/0,5 ml.. La quantité inoculée est de 0,5 ml.
Les expériences ont été réalisées en utilisant : • - le butyrate d'arginine ou de lysine, • - l'interféron, • - le corynébacterium parvum (ou CP) de souche Mérieux.
Le butyrate d'arginine a été mis en oeuvre sous la forme et en quantité analogue à ce qui est indiqué plus haut pour l'activité antivirale.
Le CP est administré dans les expériences qui suivent sous la forme d'une dose unique appliquée au moment de la greffe ou trois jours après et se présentant sous la forme d'ampoules de 2 ml comprenant 4 mg en poids sec de germes tués par le formol et la chaleur; on injecte 0,1 ml de cette substance à la souris par voie intrapéritonéale.
On a procédé à neuf expériences indépendantes portant chacune sur plusieurs groupes de 15 animaux.
Dans la première de ces expériences (groupe témoin), on a greffé aux animaux la tumeur seule.
Dans les deuxième et troisième expériences, le butyrate d'amino-acide basique a été appliqué par voie intrapéritonéale à raison de 0,5 ml d'une solution 50 fois millimolaire par souris (c'est-à-dire à raison de respectivement 0,28 mg et 0,24 mg par g de souris), trois fois par semaine (à 48 heures d'intervalle) pendant trois semaines.
Dans la quatrième expérience, on a appliqué l'interféron à raison de 20.000 à 50.000 U.I. sous un volume de 0,5 ml administré à l'animal trois fois par semaine (à 48 heures d'intervalle) pendant trois semaines.
Dans la cinquième expérience, on a appliqué le CP en une dose unique de 200 microgrammes/0,1 ml par animal, administrée par voie intrapéritonéale en même temps ou trois jours après la greffe cellulaire.
Dans les sixième à neuvième expériences, on a appliqué, suivant le cas, le butyrate d'amino-acide basique, l'interféron et/ou le CP aux mêmes doses, au même rythme et aux mêmes moments que lorsque ces produits étaient appliqués seuls dans les expériences précédentes.
Ces histogrammes montrent, en fonction du temps (nombre de jours T), le nombre N d'animaux survivants et, parmi ces animaux survivants, le nombre d'animaux portant des tumeurs décelables.
Ainsi, le nombre d'animaux survivants est porté, pour un jour donné, en ordonnée sous la forme d'une colonne figurant le nombre d'animaux et à l'intérieur de laquelle on matérialise par des hachures le nombre d'animaux porteurs de tumeurs.

[3] = 45 animals at start, butyrate de lysine 0,24 mg/g i.p. 3 times a week for 3 weeks

## hexanoate d'arginine
[1]
  survie lorsqu'on administre aussi de l'interféron: considérablement augmentée
  survie relevée au moment où la mortalité cesse dans la série d'animaux témoins: 11 sur 30

## butyrate de lysine
[1]; treatment given simultaneously with the injection of the virus
  effet protecteur: aucun effet protecteur
[2]; [3]
  animaux restants au bout de 44 jours: 2
  porteurs de tumeur parmi les animaux restants au bout de 44 jours: 1
[2]; butyrate 0,5 ml of 50 mM i.p. 3 times a week for 3 weeks (0,28 or 0,24 mg/g), interféron 20.000 à 50.000 U.I. 3 times a week for 3 weeks, CP single dose 200 microgrammes i.p.
  animaux porteurs de tumeurs au 10e jour: 32 sur 45
[2]; same doses as E4, group sizes 45 to 75 animals, no control survives beyond day 28
  animaux survivants après 100 jours d'observation: un seul

## propionate d'arginine
[1]
  survie lorsqu'on administre aussi de l'interféron: considérablement augmentée
  survie relevée au moment où la mortalité cesse dans la série d'animaux témoins: 18 sur 30
